Reference: patent publication US20250177558A1, “Functionalized Nanoclusters and Their Use in Treating Bacterial Infections” (priority 2022, published 2025)
Entries after “also recorded” stand apart in the source; their conditions may differ. Read-outs that look alike come from different tables or passages of the source.

Key:
[1] = system: Ofloxacin-induced persister cells of P. aeruginosa (PA14); test: Bactericidal activity against persister cells; assay type: cell-based, Pseudomonas aeruginosa; settings: ATP up to 10 mM, persister cells 10^8 CFU/ml
Protocol: Therefore, the 48-h-old-stationary phase was treated with Ofloxacin for 24 h to eradicate non-persister cells (FIG. 5A). Ofloxacin was used at 415 µM, corresponding to 30-fold the MIC for the PAO1 wild-type strain. The surviving persister cells were concentrated and redispersed in phosphate-buffered saline (PBS) to prevent persister cells from awakening from their metabolically repressed state.
Persister cells of the P. aeruginosa (PA14) were isolated by treating 250 ml of stationary phase cultures with Ofloxacin (415 µM final concentration). After 24 h treatment, the samples were washed with PBS, and then persister cells were concentred in 10 ml of PBS. The number of persister cells was estimated by serially diluting to determine the colony-forming unit per millilitre (CFU/ml).
All the bactericidal tests were performed on PBS without a carbon source to prevent persister cells from waking up from their low metabolic activity. Ofloxacin-induced persister cells were challenged with antimicrobial agents at the concentrations listed in the text. After the survival bacteria were washed 3× with PBS, the pellet was resuspended in 100 μL of PBS and then spread on an LB plate. The plate was incubated for 72 h at 37° C. before assessing growth.

[2] = system: PAO1Cip21; test: Disc diffusion susceptibility (cross-resistance); assay type: cell-based, Pseudomonas aeruginosa; settings: isolate after 21 passages in subinhibitory Ciprofloxacin; 5 μg discs
Protocol: In brief, glycerol stocks of each bacteria were streaked on LB plates and grown overnight at 37° C. An inoculum was prepared by diluting several individual colonies in PBS with a 0.5 McFarland Standard turbidity. The inoculum was then spread with sterile cotton swabs on Mueller Hinton agar plates supplemented with 5% sheep blood. Discs containing 5 μg of antipseudomonal drugs were dispensed on the surface of the plate. After 24 h incubation at 37° C., the inhibition zone was measured using a digital calliper.

[3] = system: Acinetobacter baumannii (A. baumannii); settings: ref [69], cited from earlier work
[4] = system: P. aeruginosa (PAO1); assay type: cell-based, Pseudomonas aeruginosa; settings: 21 passages in sub-MIC dosing; MIC at passage n/initial MIC
Protocol: The fold change in minimum inhibitory concentration (MIC) was measured as the ratio between the MIC at passage n/initial MIC.
To test this idea, we repeated our serial passaging study with two biologically independent cultures of PAO1.
Serial passage MICs were performed in 96-well microtiter panels. First, an aliquot of the well with the highest concentration permitting growth was taken and back diluted ( 1/100) in new media from inoculated microtiter panels. […] Panels were incubated according to CLSI guidelines, MICs were recorded, and the next inoculum was prepared from the well containing the highest drug concentration that identically allowed growth as described above. Twenty-one repeat passages were performed.

[5] = system: stationary phase culture of P. aeruginosa (PA14); test: Intracellular reactive oxygen species (DCFH-DA); assay type: cell-based, Pseudomonas aeruginosa; settings: relative to PBS-treated group
Protocol: FIGS. 12A-12B. […] (FIG. 12A) Schematic showing how intracellular ROS was determined using the fluorescent probe 2′,7′-dichlorofluorescein diacetate (DCFH-DA).
Cumulatively, the data in this section support that after transiting through OM, AuNC@ATP leads to the fusion of the inner leaflet of OM with the outer leaflet of the cytoplasmic membrane, which leads to bacteria death without cell lysis.
DCFH-DA (2′,7′-dichlorofluorescein diacetate) dye was applied to test the intracellular ROS concentration, which could be cleaved by the intracellular non-specific esterase into the DCFH. DCFH, in the presence of ROS, would be further oxidized into fluorescent DCF (2′,7′-dichlorofluorescein). DCFH-DA in DMSO (10 μM) was added to the treated bacterial solution and further incubated at 37° C., 200 rpm for 15 min. After that, the bacterial cells were centrifuged at 8000 g for 5 min, washed three times with PBS, and resuspended in ultrapure water to the original volume (1 mL). The microplate reader was used to measure the concentration of the produced DCF at the excitation/emission wavelength of 488/525 nm. In this experiment, the fluorescence intensity of DCF directly reflects the amount of ROS generation. […] Finally, the relative ROS production level was calculated by normalizing the ROS level from the treated groups with the production level of the PBS-treated group.

[6] = system: stationary phase culture of gram-negative bacteria; settings: conventional antibiotics, refs [54-56]; cited from earlier work
[7] = single injection, mice, ref [79], cited from earlier work

Nc1ncnc2c1ncn2[C@@H]1O[C@H](COP(=O)(O)OP(=O)(O)OP(=O)(O)O)[C@@H](O)[C@H]1O [ATP, adenosine triphosphate]
eradication of persister cells by ATP ligand alone [1]: No eradication was observed; also recorded: did not show bactericidal activity

NCC[C@H](O)C(=O)N[C@@H]1C[C@H](N)[C@@H](O[C@H]2O[C@H](CN)[C@@H](O)[C@H](O)[C@H]2O)[C@H](O)[C@H]1O[C@H]1O[C@H](CO)[C@@H](O)[C@H](N)[C@H]1O [Amikacin]
inhibition zone diameter compared to the ancestor PAO1 [2]: decrease in inhibition zone diameter
persister cells formed by A. baumannii in the presence of antibiotic [3]: 0.07%

CO/N=C(\C(=O)N[C@@H]1C(=O)N2C(C(=O)[O-])=C(C[N+]3(C)CCCC3)CS[C@H]12)c1csc(N)n1 [Cefepime]
inhibition zone diameter compared to the ancestor PAO1 [2]: decrease in inhibition zone diameter

CC(C)(O/N=C(\C(=O)N[C@@H]1C(=O)N2C(C(=O)[O-])=C(C[n+]3ccccc3)CS[C@H]12)c1csc(N)n1)C(=O)O [Ceftazidime]
inhibition zone diameter compared to the ancestor PAO1 [2]: decrease in inhibition zone diameter

O=C(O)c1cn(C2CC2)c2cc(N3CCNCC3)c(F)cc2c1=O [Ciprofloxacin]
resistance development: increase in MIC [4]: more than 250 fold

C[C@@H](O)[C@H]1C(=O)N2C(C(=O)O)=C(S[C@@H]3CN[C@H](C(=O)N(C)C)C3)[C@H](C)[C@H]12 [Meropenem]
inhibition zone diameter compared to the ancestor PAO1 [2]: decrease in inhibition zone diameter

CC1COc2c(N3CCN(C)CC3)c(F)cc3c(=O)c(C(=O)O)cn1c23 (centres unmarked) [Ofloxacin]
resistance development: increase in MIC [4]: > 1500 fold
ROS production [5]: 1.2 fold-change

Cn1c2cccc(=O)c-2nc2ccccc21 [PYO, pyocyanin]
increase of persister cells in the presence of PYO ([3]; with amikacin): 4 fold
increase of persister cells in the presence of PYO ([3]; with carbenicillin): 3 fold

NC[C@H]1O[C@H](O[C@H]2[C@H](O)[C@@H](O[C@H]3O[C@H](CO)[C@@H](O)[C@H](N)[C@H]3O)[C@H](N)C[C@@H]2N)[C@H](N)C[C@@H]1O [Tobramycin]
inhibition zone diameter compared to the ancestor PAO1 [2]: decrease in inhibition zone diameter
resistance development: increase in MIC [4]: more than 30 fold

C[C@H]1[C@H](NC(=O)/C(=N\OC(C)(C)C(=O)O)c2csc(N)n2)C(=O)N1S(=O)(=O)O [aztreonam]
inhibition zone diameter compared to the ancestor PAO1 [2]: decrease in inhibition zone diameter

CC1(C)S[C@@H]2[C@H](NC(=O)C(C(=O)O)c3ccccc3)C(=O)N2[C@H]1C(=O)O (some centres unmarked) [carbenicillin]
persister cells formed by A. baumannii in the presence of antibiotic [3]: 0.02%

Colistin
inhibition zone diameter compared to the ancestor PAO1 [2]: decrease in inhibition zone diameter
cell lysis [6]: cause bacteria cell lysis

Polymyxin-B
inhibition zone diameter compared to the ancestor PAO1 [2]: decrease in inhibition zone diameter

tobramycin sulphate
LD50 ([7]; IP): 262 mg/kg
LD50 ([7]; IV): 77 mg/kg
